Columns and labels:
monocytes = experiment: Lipopolysaccharide-activated monocyte TNF production assay (LPS induced TNF release); type: cell-based, human; conditions: Homo sapiens, Monocyte; LPS induced TNF release from monocytes; read-out: LPS induced TNFa
Procedure: Lipopolysaccharide-Activated Monocyte TNF Production Assay
Test compounds were evaluated in vitro for the ability to inhibit the production of TNF by monocytes activated with bacterial lipopolysaccharide (LPS). Fresh residual source leukocytes (a byproduct of plateletpheresis) were obtained from a local blood bank, and peripheral blood mononuclear cells (PBMCs) were isolated by density gradient centrifugation on Ficol-Paque Plus (Pharmacia). PBMCs were suspended at 2×10^6/mL in DMEM supplemented to contain 2% FCS, 10 mM, 0.3 mg/mL […], 100 U/mL penicillin G and […] streptomycin sulfate (complete media). Cells were plated into Falcon flat bottom, 96 well culture plates (200 μL/well) and cultured overnight at 37° C. and 6% CO2. Non-adherent cells were removed by washing with 200 μl/well of fresh medium. Wells containing adherent cells (˜70% monocytes) were replenished with 100 μL of fresh medium.
Preparation of Test Compound Stock Solutions
Test compounds were dissolved in […]. Compound stock solutions were prepared to an initial concentration of […]. Stocks were diluted initially to […] in complete media. Nine two-fold serial dilutions of each compound were then prepared in complete medium.
Treatment of Cells with Test Compounds and Activation of TNF Production with Lipopolysaccharide
One hundred microliters of each test compound dilution were added to microtiter wells containing adherent monocytes and 100 μL complete medium. Monocytes were cultured with test compounds for 60 min at which time 25 μL of complete medium containing 30 ng/mL lipopolysaccharide from E. coli K532 were added to each well. Cells were cultured an additional 4 hrs. Culture supernatants were then removed and TNF presence in the supernatants was quantified using an ELISA.
Flat bottom, 96 well Corning High Binding ELISA plates were coated overnight (4° C.) with 150 μL/well of 3 μg/mL murine anti-human TNF-α MAb (R&D Systems #MAB210). Wells were then blocked for 1 h at room temperature with 200 μL/well of CaCl2-free ELISA buffer supplemented to contain 20 mg/mL BSA (standard ELISA buffer: […], 150 mM NaCl, 2 mM CaCl2, 0.15 mM thimerosal, pH 7.4). Plates were washed and replenished with 100 μL of test supernatants (diluted 1:3) or standards. Standards consisted of eleven 1.5-fold serial dilutions from a stock of 1 ng/mL recombinant human TNF (R&D Systems). Plates were incubated at room temperature for 1 h on orbital shaker (300 rpm), washed and replenished with 100 μL/well of 0.5 μg/mL goat anti-human TNF-α (R&D systems #AB-210-NA) biotinylated at a 4:1 ratio. Plates were incubated for 40 min, washed and replenished with 100 μL/well of alkaline phosphatase-conjugated streptavidin (Jackson ImmunoResearch #016-050-084) at 0.02 μg/mL. Plates were incubated 30 min, washed and replenished with 200 μL/well of 1 mg/mL of p-nitrophenyl phosphate.
Standard curve data were fit to a second order polynomial and unknown TNF-α concentrations determined from their OD by solving this equation for concentration. TNF concentrations were then plotted vs. test compound concentration using a second order polynomial. This equation was then used to calculate the concentration of test compounds causing a 50% reduction in TNF production.

p38α = p38α (Homo sapiens, UniProt Q16539); experiment: p38 in-vitro HTRF enzyme assay; type: biochemical; conditions: IC50 value ranges
Chain of p38α (Q16539 whole entry): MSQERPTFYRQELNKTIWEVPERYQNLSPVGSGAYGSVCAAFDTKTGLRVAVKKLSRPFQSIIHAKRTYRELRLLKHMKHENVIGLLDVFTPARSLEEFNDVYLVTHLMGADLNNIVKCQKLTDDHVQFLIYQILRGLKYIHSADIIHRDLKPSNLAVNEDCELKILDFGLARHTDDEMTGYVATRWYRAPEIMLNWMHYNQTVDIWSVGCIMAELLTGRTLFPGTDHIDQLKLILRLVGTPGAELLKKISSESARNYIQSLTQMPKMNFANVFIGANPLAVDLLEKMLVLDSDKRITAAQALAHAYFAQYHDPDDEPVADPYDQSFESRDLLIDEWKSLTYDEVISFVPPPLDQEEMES
Procedure: p38 In-Vitro HTRF Enzyme Assay
The compounds of the invention can be tested for their respective affinities for the p38 protein using a conventional p38 in-vitro enzyme activity assay. For example, a P38-alpha HTRF assay may be used to measure the protein's in-vitro phosphorylation activity, and the data analyzed using time resolved fluorimetry techniques (FRET). A p38 HTRF assay is as follows. The kinase reaction buffer for p38α, p38β, p38δ and p38γ HTRF assays consists of 50 mM Tris-pH 7.5, 5 mM MgCl2, 0.1 mg/mL BSA, 100 μM Na3VO4 and 0.5 mM DTT. The HTRF detection buffer contains 100 mM HEPES-pH 7.5, 100 mM NaCl, 0.1% BSA, 0.05% Tween-20, and 10 mM EDTA. Each compound was dissolved in 100% DMSO and serially diluted (3 fold, 10 point) in a polypropylene 96-well microtiter plate (drug plate). The final starting concentration of the compound in the p38α and p38β enzymatic assays was about 1 μM. The final starting concentration of each compound in the p38δ and p38γ enzymatic assays was about 10 μM. The p38α, p38β, p38δ and p38γ kinase reactions were carried out in a polypropylene 96-well black round bottom assay plate in total volume of 30 μL kinase reaction buffer. Appropriate concentration of purified and activated enzyme (recombinant human) was mixed with indicated concentration of ATP and 100 nM GST-ATF2-Avitag, in the presence or absence (HI control) of each compound. In the absence of enzyme, the background was measured as LO control. HI controls and LO controls contained only DMSO. The reaction was allowed to incubate for 1 hour at RT. […] After 60 minutes incubation at room temperature, the assay plate was read in a Discovery Plate Reader. The wells were excited with coherent 320 nm light and the ratio of delayed ([…] post excitation) emissions at […] (native europium fluorescence) and 665 nm (europium fluorescence transferred to allophycocyanin—an index of substrate phosphorylation) was determined (Park et al, 1999). The resulting data was analyzed by taking the proportion of substrate phosphorylated in the kinase reaction in the presence of each individual compound and comparing it with that phosphorylated in the presence of DMSO vehicle alone (HI control). The data was calculated using the formula: % control (POC)=(compound−average LO)/(average HI−average LO)*100. Data (consisting of POC and inhibitor concentration in μM) was fitted to a 4-parameter equation (y=A+((B−A)/(1+((x/C)^D))), where A is the minimum y (POC) value, B is the maximum y (POC), C is the x (compound concentration) at the point of inflection and D is the slope factor, using a Levenburg-Marquardt non-linear regression algorithm. The inhibition constant (Ki) of the inhibitor was estimated from the IC50 (compound concentration at the point of inflection C) using the Cheng-Prussof equation: Ki=IC50/(1+S/Km), where S is the ATP substrate concentration, and Km is the Michaelis constant for ATP as determined experimentally. All results were expressed as the mean±the standard error of the mean. Data acquisition and non-linear regression algorithms were performed using Activity Base v5.2 and XLfit software v4.1 respectively. Additional assay information may be obtained in Park Y W, Cummings R T, Wu L, et al. Homogeneous Proximity Tyrosine Kinase Assays Scintillation Proximity Assay versus Homogeneous Time-Resolved Fluorescence. Analytical Biochemistry. 1999; 269: 94-104.

THP1 cells = experiment: Lipopolysaccharide-activated THP1 cell TNF production assay; type: cell-based, human; conditions: Homo sapiens, THP-1; LPS-induced TNF-α production in THP1 cells
Procedure: Lipopolysaccharide-Activated THP1 Cell TNF Production Assay
THP1 cells are resuspended in fresh THP1 media (RPMI 1640, 10% heat-inactivated FBS, 1×PGS, 1×NEAA, plus 30 μM βME) at a concentration of 1E6/mL. One hundred microliters of cells per well are plated in a polystyrene 96-well tissue culture. One microgram per mL of bacterial LPS is prepared in THP1 media and is transferred to the wells. Test compounds are dissolved in 100% DMSO and are serially diluted 3-fold in a polypropylene 96-well microtiter plate (drug plate). HI control and LO control wells contain only DMSO. One microliter of test compound from the drug plate followed by 10 μL of LPS are transferred to the cell plate. The treated cells are induced to synthesize and secrete TNF-α at 37° C. for 3 h. Forty microliters of conditioned media are transferred to a 96-well polypropylene plate containing 110 μL of ECL buffer (50 mM Tris-HCl pH 8.0, 100 mM NaCl, 0.05% Tween 20, 0.05% NaN3 and 1% FBS) supplemented with 0.44 nM MAB610 monoclonal Ab (R&D Systems), 0.34 nM ruthenylated AF210NA polyclonal Ab (R&D Systems) and 44 μg/mL sheep anti-mouse M280 Dynabeads (Dynal). After a 2 h incubation at room temperature with shaking, the reaction is read on the ECL M8 Instrument (IGEN Inc.). A low voltage is applied to the ruthenylated TNF-α immune complexes, which in the presence of TPA (the active component in Origlo), results in a cyclical redox reaction generating light at […]. The amount of secreted TNF-α in the presence of compound compared with that in the presence of DMSO vehicle alone (HI control) is calculated using the formula: % control (POC)=(cpd−average LO)/(average HI−average LO)*100. Data (consisting of POC and inhibitor concentration in μM) is fitted to a 4-parameter equation (y=A+((B−A)/(1+((x/C)^D))), where A is the minimum y (POC) value, B is the maximum y (POC), C is the x (cpd concentration) at the point of inflection and D is the slope factor) using a Levenburg-Marquardt non-linear regression algorithm.

| SMILES | IC50 (monocytes) [nM] | IC50 (p38α) [nM] | IC50 (THP1 cells) [nM] |
| --- | --- | --- | --- |
| Cc1ccc(C(=O)NC2CC2)cc1-c1ccn2c(-c3ccc(S(C)(=O)=O)cc3)nnc2c1 [Example 12, N-cyclopropyl-4-methyl-3-(3-(4-(methylsulfonyl)phenyl)[1,2,4]triazolo[4,3-a]pyridin-7-yl)benzamide] | 250 to 1000 | 25 to 100 | 1000 to 5000 |
| Cc1ccc(C(=O)NC2(C)CC2)cc1-c1ccn2c(-c3ccc(F)cc3C)nnc2c1 [Example 16, 3-(3-(4-fluoro-2-methylphenyl)[1,2,4]triazolo[4,3-a]pyridin-7-yl)-4-methyl-N-(1-methylcyclopropyl)benzamide] | 100 to 250 | 25 to 100 | 100 to 250 |
| Cc1ccc(C(=O)NC2CC2)cc1-c1ccn2c(-c3cccc(S(C)(=O)=O)c3)nnc2c1 [Example 18, N-cyclopropyl-4-methyl-3-(3-(3-(methylsulfonyl)phenyl)[1,2,4]triazolo[4,3-a]pyridin-7-yl)benzamide] | 100 to 250 | 25 to 100 | 250 to 1000 |
| Cc1ccc(C(=O)NC2CC2)cc1-c1ccn2c(-c3ccc(F)cc3C)ncc2c1 [Example 22, N-cyclopropyl-3-(3-(4-fluoro-2-methylphenyl)imidazo[1,5-a]pyridin-7-yl)-4-methylbenzamide] | 25 to 100 | < 25 | 25 to 100 |
| Cc1ccc(C(=O)Nc2ccnn2C)cc1-c1ccn2c(-c3ccc(F)cc3C)ncc2c1 [Example 23, 3-(3-(4-fluoro-2-methylphenyl)imidazo[1,5-a]pyridin-7-yl)-4-methyl-N-(1-methyl-1H-pyrazol-5-yl)benzamide] | 25 to 100 | < 25 | < 25 |
| Cc1ccc(C(N)=O)cc1-c1ccn2c(N)nnc2c1 [Example 24, 3-(3-amino[1,2,4]triazolo[4,3-a]pyridin-7-yl)-4-methylbenzamide] | 1000 to 5000 | 1000 to 5000 | 1000 to 5000 |
| Cc1ccc(C(=O)NC2CC2)cc1-c1ccn2c(CC(C)(C)C)nnc2c1 [Example 25, N-cyclopropyl-3-(3-(2,2-dimethylpropyl)[1,2,4]triazolo[4,3-a]pyridin-7-yl)-4-methylbenzamide] | 25 to 100 | < 25 | 25 to 100 |

The remaining lines, values ahead:

| IC50 (monocytes) [nM] | IC50 (p38α) [nM] | IC50 (THP1 cells) [nM] | SMILES |
| --- | --- | --- | --- |
| 25 to 100 | < 25 | 25 to 100 | Cc1ccc(C(=O)NC2(C)CC2)cc1-c1ccn2c(-c3ccccc3Cl)nnc2c1 [Example 11, 3-(3-(2-chlorophenyl)[1,2,4]triazolo[4,3-a]pyridin-7-yl)-4-methyl-N-(1-methylcyclopropyl)benzamide] |
| 250 to 1000 | 25 to 100 | 250 to 1000 | Cc1ccc(C(=O)NC2(C)CC2)cc1-c1ccn2c(-c3ccc(S(C)(=O)=O)cc3)nnc2c1 [Example 13, 4-methyl-N-(1-methylcyclopropyl)-3-(3-(4-(methylsulfonyl)phenyl)[1,2,4]triazolo[4,3-a]pyridin-7-yl)benzamide] |
| 1000 to 5000 | 25 to 100 | 1000 to 5000 | Cc1ccc(C(=O)Nc2ccnn2C)cc1-c1ccn2c(-c3ccc(S(C)(=O)=O)cc3)nnc2c1 [Example 14, 4-methyl-N-(1-methyl-1H-pyrazol-5-yl)-3-(3-(4-(methylsulfonyl)phenyl)[1,2,4]triazolo[4,3-a]pyridin-7-yl)benzamide] |
| 25 to 100 | < 25 | < 25 | Cc1ccc(C(=O)NC2CC2)cc1-c1ccn2c(-c3ccc(F)cc3C)nnc2c1 [Example 15, N-cyclopropyl-3-(3-(4-fluoro-2-methylphenyl)[1,2,4]triazolo[4,3-a]pyridin-7-yl)-4-methylbenzamide] |
| < 25 | < 25 | < 25 | Cc1ccc(C(=O)Nc2ccnn2C)cc1-c1ccn2c(-c3ccc(F)cc3C)nnc2c1 [Example 17, 3-(3-(4-fluoro-2-methylphenyl)[1,2,4]triazolo[4,3-a]pyridin-7-yl)-4-methyl-N-(1-methyl-1H-pyrazol-5-yl)benzamide] |

Source: patent US7700593B2, “Imidazo- and triazolo-pyridine compounds and methods of use thereof” (Amgen Inc., priority 2006, dated 2010)
